{
  "source": "patent US20050107405A1",
  "about": "“Pharmaceutical composition for alleviating pain or spasticity in a patient suffering from spinal cord injury” (priority 2003, published 2005)",
  "key": {"[1]": {"tested_on": "pain or spasticity in patients suffering from spinal cord injury", "test": "Administration of sildenafil citrate (50 mg VIAGRA tablet) to three male patients with spinal cord injury", "type": "in vivo, human", "details": "for Effect of alleviating pain or spasticity caused by spinal cord injury (in words): patients with spinal cord injury (Patients 1 to 3), comparison with customary analgesics", "method": "Sildenafil citrate was administered to three male patients of ages 30-73, who have sexual dysfunction and somatic pain. Patient 1: 7th thoracic vertebrae injury and complete paraplegia. […] Erectile dysfunction. Every day behavior: Wheel chair. Patient 2: 12th thoracic vertebrae injury and complete paraplegia. […] Erectile dysfunction. Every day behavior: Wheel chair. Patient 3: 6th cervical vertebrae injury and incomplete quadriplegia. They were constantly suffering from limb pain and spasticity. Erectile dysfunction. Every day behavior: Wheel chair. Patients 1 to 3 were dosed with a 50 mg tablet of […]® in the unit dosage form when feeling pain or spasticity."}, "[2]": {"tested_on": "peripheral nociception", "details": "potentiated by sodium nitroprasside and L-arginine; cited from earlier work"}, "[3]": {"tested_on": "morphine-induced antinociception", "details": "with morphine; cited from earlier work"}, "[4]": {"tested_on": "nociception", "details": "alone and with diclofenac; cited from earlier work"}, "[5]": {"details": "Patient 1, Th7 complete paraplegia, 50 mg tablet"}, "[6]": {"details": "Patient 1, Th7 complete paraplegia, 50 mg tablet, monocitrate"}, "[7]": {"details": "Patient 2, Th12 complete paraplegia, 50 mg tablet, monocitrate"}, "[8]": {"details": "Patient 3, C6 incomplete quadriplegia, 50 mg tablet, monocitrate"}},
  "note": "“Also recorded” adds a separate entry of the source.",
  "data": [
    {"smiles": "O=C(O)Cc1ccccc1Nc1c(Cl)cccc1Cl", "note": "[diclofevac sodium]", "values": [
      {"measurement": "Effect of alleviating pain or spasticity caused by spinal cord injury (in words)", "setting": "[1]", "value": "no effects of alleviating pain or spasticity could be found"},
      {"measurement": "Effect of alleviating pain or spasticity caused by spinal cord injury (in words)", "setting": "[1]; listed as Voltaren", "value": "does not have any analgesic effects"}
    ]},
    {"smiles": "CC(C(=O)O)c1ccc(CC2CCCC2=O)cc1", "note": "(stereo not shown) [loxoprofen sodium]", "values": [
      {"measurement": "Effect of alleviating pain or spasticity caused by spinal cord injury (in words)", "setting": "[1]", "value": "no effects of alleviating pain or spasticity could be found"},
      {"measurement": "Effect of alleviating pain or spasticity caused by spinal cord injury (in words)", "setting": "[1]; listed as Loxonin", "value": "does not have any analgesic effects"}
    ]},
    {"smiles": "CCCc1nn(C)c2c(=O)[nH]c(-c3cc(S(=O)(=O)N4CCN(C)CC4)ccc3OCC)nc12.O=C(O)CC(O)(CC(=O)O)C(=O)O", "note": "[sildenafil citrate, 1-[[3-(6,7-dihydro-1-methyl-7-oxo-3-propyl-1H-pyrazolo[4,3-d]pyrimidin-5-yl)-4-ethoxyphenyl]sulfonyl]-4-methylpiperazine monocitrate]", "values": [
      {"measurement": "Emerging Time of Effect After Administration", "setting": "[1]; [5]", "value": 30, "unit": "min"},
      {"measurement": "Time until side effect (light heat sensation) disappeared", "setting": "[1]; [5]", "value": "two to three"},
      {"measurement": "Duration of Effects", "setting": "[1]; [6]", "value": "around half; also recorded: half day"},
      {"measurement": "Improvement of Erectile Dysfunction", "setting": "[1]; [6]", "value": "improved and Yes"},
      {"measurement": "Side Effects", "setting": "[1]; [6]", "value": "Light heat sensation"},
      {"measurement": "Effects of alleviating pain or spasticity", "setting": "[1]; Patient 2, Th12 complete paraplegia, 50 mg tablet", "value": "by about 30%"},
      {"measurement": "Duration of Effects", "setting": "[1]; [7]", "value": "around one; also recorded: about one day"},
      {"measurement": "Emerging Time of Effect After Administration", "setting": "[1]; [7]", "value": "around one; also recorded: one hour"},
      {"measurement": "Improvement of Erectile Dysfunction", "setting": "[1]; [7]", "value": "not improved and No"},
      {"measurement": "Side Effects", "setting": "[1]; [7]", "value": "No side effect was observed and No"},
      {"measurement": "Duration of Effects", "setting": "[1]; [8]", "value": "5 to 6", "unit": "h"},
      {"measurement": "Improvement of Erectile Dysfunction", "setting": "[1]; [8]", "value": "improved and No"},
      {"measurement": "Side Effects", "setting": "[1]; [8]", "value": "No side effect was observed and No"},
      {"measurement": "Effect of alleviating pain or spasticity caused by spinal cord injury (in words)", "setting": "[1]", "value": "significantly alleviates the pain or spasticity"},
      {"measurement": "Alleviation of the pain or spasticity", "setting": "[1]; summary over Patients 1 to 3, 50 mg", "value": "20 to 50", "unit": "%"}
    ]},
    {"smiles": "CCCc1nn(C)c2c(=O)[nH]c(-c3cc(S(=O)(=O)N4CCN(C)CC4)ccc3OCC)nc12", "note": "[sildenafil, 5-[2-ethoxy-5-(4-methyl-1-piperazinylsulphonyl)phenyl]-1-methyl-3-n-propyl-1,6-dihydro-7H-pyrazolo[4,3-d]pyrimidin-7-one]", "values": [
      {"measurement": "Antinociception", "setting": "[2]", "value": "induces antinociception"},
      {"measurement": "Effect on morphine-induced antinociception", "setting": "[3]", "value": "significantly increases the morphine-induced antinociception"},
      {"measurement": "Antinociceptive activity", "setting": "[4]", "value": "produces antinociceptive activity, and increases that of diclofenac"}
    ]}
  ]
}
